The values below are quoted from earlier work in patent US7452901B2, “Anti-cancer phosphonate analogs” (Gilead Sciences, Inc., priority 2003, dated 2008).

For the series, the target named is T1, purine nucleotide phosphorylase (Homo sapiens, UniProt P00491).
T1 sequence (P00491 1-289): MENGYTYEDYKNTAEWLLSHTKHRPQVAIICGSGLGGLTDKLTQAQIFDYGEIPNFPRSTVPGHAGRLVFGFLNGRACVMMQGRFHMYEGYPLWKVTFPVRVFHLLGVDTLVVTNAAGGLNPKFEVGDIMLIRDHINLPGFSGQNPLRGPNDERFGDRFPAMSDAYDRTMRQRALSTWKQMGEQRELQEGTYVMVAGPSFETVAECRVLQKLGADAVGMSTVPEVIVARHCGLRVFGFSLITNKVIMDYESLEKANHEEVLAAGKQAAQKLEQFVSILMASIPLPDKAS
The note with it: disclosed at the ACS meeting (2000).

As a reminder, the IC50 is the midpoint of a concentration-inhibition curve. In the case of `Nc1nc2c([C@@H](CO)c3ccccc3F)c[nH]c2c(=O)[nH]1` [PNP-405], the IC50 was 20 nM.
